For 26 compounds, Emax and IC50 results are on record in patent US11524938B2, “Aromatic sulfonamide derivatives” (Bayer Pharma Aktiengesellschaft, priority 2016, dated 2022).

In this experiment the target is T1, human P2X4 (Homo sapiens, UniProt Q99571).
T1 sequence (Q99571 1-388): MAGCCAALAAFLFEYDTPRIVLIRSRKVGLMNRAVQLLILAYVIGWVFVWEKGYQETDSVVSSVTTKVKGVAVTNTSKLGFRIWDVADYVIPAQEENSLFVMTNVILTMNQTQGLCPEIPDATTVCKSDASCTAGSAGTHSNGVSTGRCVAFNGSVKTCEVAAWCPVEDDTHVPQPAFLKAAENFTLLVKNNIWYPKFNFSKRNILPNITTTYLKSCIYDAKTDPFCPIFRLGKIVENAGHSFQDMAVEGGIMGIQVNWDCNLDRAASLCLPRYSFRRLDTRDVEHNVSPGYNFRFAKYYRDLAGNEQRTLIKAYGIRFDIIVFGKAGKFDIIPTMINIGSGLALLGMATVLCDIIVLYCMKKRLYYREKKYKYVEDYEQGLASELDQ
Kind of experiment: Human P2X4 HEK Cell FLIPR Assay. In kind it is cell-based. The conditions noted are these: agonist Bz-ATP at EC80; for Emax: HEK293, HEK293 cells, percentage of maximal inhibition, read-out: Human P2X4 HEK Cells (FLIPR Assay) avg Efficacy [%]; for IC50: HEK293 cells, individual values listed where some fall outside detection range. The protocol:
HEK293 cells stably expressing human P2X4 were plated in poly-D-lysine-coated 384-well plates at a seeding density of 30000 cells/well and incubated overnight. P2X4 function was assessed by measuring intracellular calcium changes using the calcium-chelating dye Fluo8-AM (Molecular Devices) on a fluorescent imaging plate reader (FLEX/FLIPR station; Molecular Devices). On the day of the assay, the medium was removed and the cells were incubated for 30 min at 37° C. and 5% CO2 in 30 μL of dye buffer (Hank's balanced salt solution, 10 mM HEPES, 1.8 mM CaCl2, 1 mM MgCl2, 2 mM probenecid, 5 mM D-glucose monohydrate, 5 μM Fluo8-AM, pH=7.4). Compounds diluted in probenecid buffer (Hank's balanced salt solution, 10 mM HEPES, 1.8 mM CaCl2, 1 mM MgCl2, 2 mM probenecid, 5 mM D-glucose monohydrate, pH=7.4) were added in a volume of 10 μL and allowed to incubate for 30 min at room temperature. The final assay DMSO concentration was 0.5%. The agonist, Bz-ATP (Tocris), was added in a volume of 10 μL at a concentration representing the EC80 value. The EC80 value of Bz-ATP was determined each assay day prior to compound profiling. The fluorescence was measured for an interval of 120 sec at 2 sec intervals. The excitation and emission wavelengths used to monitor fluorescence were 470-495 nm and 515-575 nm, respectively. The data was analyzed based on the increase in peak relative fluorescence units (RFU) compared to the basal fluorescence and the data was normalized to the agonist control. The compounds were tested in triplicates per plate and mean values were plotted in Excel XLFit to determine IC50 values, percentage of maximal inhibition and the Hill coefficients.

Where only a bound is given, the exact number is not on record here.

For `NS(=O)(=O)c1cc(NC(=O)Cc2ccccc2F)ccc1-n1cnc(C(F)(F)F)n1` [Example 54, 2-(2-Fluorophenyl)-N-{3-sulfamoyl-4-[3-(trifluoromethyl)-1H-1,2,4-triazol-1-yl]phenyl}acetamide], the Emax is 75% and the IC50 turned out to be 557 nM.
For `NS(=O)(=O)c1cc(NC(=O)Cc2cccc(F)c2)ccc1-n1cnc(C(F)(F)F)n1` [Example 55, 2-(3-Fluorophenyl)-N-{3-sulfamoyl-4-[3-(trifluoromethyl)-1H-1,2,4-triazol-1-yl]-phenyl}acetamide] the same measures were 74% and 1400 nM.
For `NS(=O)(=O)c1cc(NC(=O)Cc2ccc(F)cc2Cl)ccc1-n1cnc(C(F)(F)F)n1` [Example 56, 2-(2-Chloro-4-fluorophenyl)-N-{3-sulfamoyl-4-[3-(trifluoromethyl)-1H-1,2,4-triazol-1-yl]phenyl}acetamide] the same measures were 70% and 121 nM.
In the same order, the values of `NS(=O)(=O)c1cc(NC(=O)Cc2ccccc2OC(F)F)ccc1-n1cnc(C(F)(F)F)n1` [Example 57, 2-[2-(Difluoromethoxy)phenyl]-N-{3-sulfamoyl-4-[3-(trifluoromethyl)-1H-1,2,4-triazol-1-yl]phenyl}acetamide] are 71% and 141 nM.
As to `NS(=O)(=O)c1cc(NC(=O)Cc2cc(F)ccc2Cl)ccc1-n1cnc(C(F)(F)F)n1` [Example 58, 2-(2-Chloro-5-fluorophenyl)-N-{3-sulfamoyl-4-[3-(trifluoromethyl)-1H-1,2,4-triazol-1-yl]phenyl}acetamide], the Emax came out at 54% and the half-inhibitory concentration (IC50) is 73 nM.
With `NS(=O)(=O)c1cc(NC(=O)Cc2ccncc2Cl)ccc1-n1cnc(C(F)(F)F)n1` [Example 59, 2-(3-Chloropyridin-4-yl)-N-{3-sulfamoyl-4-[3-(trifluoromethyl)-1H-1,2,4-triazol-1-yl]phenyl}acetamide], the Emax is 73% and the IC50 was found to be 4650 nM.
For `NS(=O)(=O)c1cc(NC(=O)Cc2ccc(C(F)F)cc2)ccc1-n1cnc(C(F)(F)F)n1` [Example 60, 2-[4-(Difluoromethyl)phenyl]-N-{3-sulfamoyl-4-[3-(trifluoromethyl)-1H-1,2,4-triazol-1-yl]phenyl}acetamide] the same measures were 80% and 917 nM.
In the case of `NS(=O)(=O)c1cc(NC(=O)C(F)(F)c2ccccc2Cl)ccc1-n1cnc(C(F)(F)F)n1` [Example 61, 2-(2-Chlorophenyl)-2,2-difluoro-N-{3-sulfamoyl-4-[3-(trifluoromethyl)-1H-1,2,4-triazol-1-yl]phenyl}acetamide], the Emax stood at 79% and the half-inhibitory concentration (IC50) stood at 400 nM.
For `NS(=O)(=O)c1cc(NC(=O)C(F)(F)c2ccccc2Cl)ccc1-n1cc(Br)cn1` [Example 62, N-[4-(4-Bromo-1H-pyrazol-1-yl)-3-sulfamoylphenyl]-2-(2-chlorophenyl)-2,2-difluoroacetamide] the same measures were 94% and 249 nM.
In the same order, the values of `NS(=O)(=O)c1cc(NC(=O)Cc2ccccc2F)ccc1-n1cc(Br)cn1` [Example 63, N-[4-(4-Bromo-1H-pyrazol-1-yl)-3-sulfamoylphenyl]-2-(2-fluorophenyl)acetamide] are 87% and 130 nM.
On to `NS(=O)(=O)c1cc(NC(=O)Cc2ccccc2C(F)(F)F)ccc1-n1cc(Br)cn1` [Example 64, N-[4-(4-Bromo-1H-pyrazol-1-yl)-3-sulfamoylphenyl]-2-[2-(trifluoromethyl)-phenyl]acetamide], for which the Emax amounted to 83% and the IC50 is 104 nM.
In the same order, the values of `NS(=O)(=O)c1cc(NC(=O)Cc2cccc(F)c2)ccc1-n1cc(Br)cn1` [Example 65, N-[4-(4-Bromo-1H-pyrazol-1-yl)-3-sulfamoylphenyl]-2-(3-fluorophenyl)acetamide] are 62% and 355 nM.
As for `Cc1ccccc1CC(=O)Nc1ccc(-n2cc(Br)cn2)c(S(N)(=O)=O)c1` [Example 66, N-[4-(4-Bromo-1H-pyrazol-1-yl)-3-sulfamoylphenyl]-2-(2-methylphenyl)acetamide], the Emax is 90% and the IC50 turned out to be 86 nM.
For `NS(=O)(=O)c1cc(NC(=O)Cc2cccnc2Cl)ccc1-n1cc(Br)cn1` [Example 67, N-[4-(4-Bromo-1H-pyrazol-1-yl)-3-sulfamoylphenyl]-2-(2-chloropyridin-3-yl)-acetamide] the same measures were 98% and 1510 nM.
For `NS(=O)(=O)c1cc(NC(=O)Cc2ccc(F)cc2Cl)ccc1-n1cc(Br)cn1` [Example 68, N-[4-(4-Bromo-1H-pyrazol-1-yl)-3-sulfamoylphenyl]-2-(2-chloro-4-fluorophenyl)-acetamide] the same measures were 75% and 128 nM.
In the same order, the values of `NS(=O)(=O)c1cc(NC(=O)Cc2ccccc2OC(F)F)ccc1-n1cc(Br)cn1` [Example 69, N-[4-(4-Bromo-1H-pyrazol-1-yl)-3-sulfamoylphenyl]-2-[2-(difluoromethoxy)-phenyl]acetamide] are 80% and 210 nM.
`NS(=O)(=O)c1cc(NC(=O)Cc2ccccc2OC(F)(F)F)ccc1-n1cc(Br)cn1` [Example 70, N-[4-(4-Bromo-1H-pyrazol-1-yl)-3-sulfamoylphenyl]-2-[2-(trifluoromethoxy)-phenyl]acetamide]: the Emax was 85% and the IC50 came to 118 nM.
In the same order, the values of `NS(=O)(=O)c1cc(NC(=O)Cc2cc(F)c(F)cc2Cl)ccc1-n1cc(Br)cn1` [Example 71, N-[4-(4-Bromo-1H-pyrazol-1-yl)-3-sulfamoylphenyl]-2-(2-chloro-4,5-difluorophenyl)-acetamide] are 80% and 132 nM.
Turning to `NS(=O)(=O)c1cc(NC(=O)Cc2ccncc2Cl)ccc1-n1cc(Br)cn1` [Example 72, N-[4-(4-Bromo-1H-pyrazol-1-yl)-3-sulfamoylphenyl]-2-(3-chloropyridin-4-yl)acetamide], the Emax amounted to 96% and the IC50 was 576 nM.
As for `NS(=O)(=O)c1cc(NC(=O)Cc2ccc(C(F)F)cc2)ccc1-n1cc(Br)cn1` [Example 73, N-[4-(4-Bromo-1H-pyrazol-1-yl)-3-sulfamoylphenyl]-2-[4-(difluoromethyl)-phenyl]acetamide], the Emax worked out at 52% and the IC50 stood at 168 nM.
For `NS(=O)(=O)c1cc(NC(=O)Cc2ccccc2Br)ccc1-n1cc(Cl)cn1` [Example 74, 2-(2-Bromophenyl)-N-[4-(4-chloro-1H-pyrazol-1-yl)-3-sulfamoylphenyl]acetamide] the same measures were 84% and 49 nM.
In the same order, the values of `COc1ccccc1CC(=O)Nc1ccc(-n2cc(Cl)cn2)c(S(N)(=O)=O)c1` [Example 75, N-[4-(4-Chloro-1H-pyrazol-1-yl)-3-sulfamoylphenyl]-2-(2-methoxyphenyl)acetamide] are 87% and 213 nM.
For `NS(=O)(=O)c1cc(NC(=O)Cc2ccc(Cl)cc2)ccc1-n1cc(Cl)cn1` [Example 76, 2-(4-Chlorophenyl)-N-[4-(4-chloro-1H-pyrazol-1-yl)-3-sulfamoylphenyl]acetamide] the same measures were 34% and greater than 25000 nM.
With `NS(=O)(=O)c1cc(NC(=O)Cc2c(F)cccc2Cl)ccc1-n1cc(Cl)cn1` [Example 77, 2-(2-Chloro-6-fluorophenyl)-N-[4-(4-chloro-1H-pyrazol-1-yl)-3-sulfamoylphenyl]-acetamide], the Emax was 82% and the IC50 came to 71 nM.
In the same order, the values of `NS(=O)(=O)c1cc(NC(=O)Cc2ccccc2[N+](=O)[O-])ccc1-n1cc(Cl)cn1` [Example 78, N-[4-(4-Chloro-1H-pyrazol-1-yl)-3-sulfamoylphenyl]-2-(2-nitrophenyl)acetamide] are 97% and 517 nM.
For `NS(=O)(=O)c1cc(NC(=O)Cc2ccc(Cl)cc2Cl)ccc1-n1cc(Cl)cn1` [Example 79, N-[4-(4-Chloro-1H-pyrazol-1-yl)-3-sulfamoylphenyl]-2-(2,4-dichlorophenyl)acetamide] the same measures were 78% and 2030 nM.
